These results are taken from ChEMBL document CHEMBL1150092, “Isolation and characterization of cytotoxic and antibacterial tetrasaccharide glycosides from Ipomoea stans” (1995).

In brackets after ≈: the same amount, converted by molar mass.

For assay [1], the system named is P388. Put plainly: Cytotoxicity against mouse P388 cells. Format: functional. Conditions: read-out: ED50 (the source's name).
Assay [2] relates to Bacillus subtilis. As to the kind of experiment: Antimicrobial activity against Bacillus subtilis ATCC 6633. Type of assay: functional, organism-based.
Assay [3] relates to Staphylococcus aureus. Put plainly: Antimicrobial activity against Staphylococcus aureus ATCC 6538. Format: functional, organism-based.

`CCCCC[C@H]1CCCCCCCCCC(=O)O[C@H]2[C@H](O)[C@@H](CO)O[C@@H](O[C@H]3[C@H](O1)O[C@H](C)[C@H](O)[C@@H]3O)[C@@H]2O[C@@H]1O[C@@H](C)[C@H](OC(=O)[C@@H](C)CC)[C@@H](O[C@@H]2O[C@@H](C)[C@H](O)[C@@H](O)[C@H]2O)[C@H]1OC(=O)[C@@H](C)CC` [TRICOLORIN A]: in assay [1], the EC50 worked out at 2.2 µg/mL (≈ 2.15 µM).

Broadly, the MIC is the least concentration at which growth counts as inhibited. Low readings indicate inhibition by little substance, high ones a need for much substance. Turning to NYSTATIN, the results for the MIC in assay [2] and in assay [3] were 16 µg/mL and 8 µg/mL, respectively.
